As a reminder, the ED50 is the midpoint of the dose-response relation.

Here are results for 1 molecule from US20070191452A1, “USE OF BENZO-HETEROARYL SULFAMIDE DERIVATIVES FOR THE TREATMENT OF PAIN” (priority 2006, published 2007).

What all share (format): in vivo
The test system of test [1] is mechanical (tactile) allodynia after L5 nerve ligation. Put plainly: Rat Chung Model of Neuropathic Pain (L5 nerve ligation, von Frey mechanical allodynia). On the procedure: The rat Chung model is an assay used in determining whether a compound is useful for the treatment of neuropathic pain (Kim and Chung, 1994; Chaplan et al., 1994).
In this study, male Sprague Dawley rats (145-165 g; Harlan) were anesthetized and the L5 nerve was isolated and ligated with silk suture material resulting in mechanical allodynia. Two weeks post-ligation, rats were dosed acutely with vehicle (an aqueous solution of 0.5% methylcellulose) or Compound #1 at 15, 30, 60, 120 or 240 mg/kg, p.o. Mechanical (tactile) allodynia was quantified by recording the pressure at which the affected paw withdrew from a graded stimulus (von Frey hairs) at 30 min, 1, 2 and 4 h post-dosing. Data were normalized and results are presented as % MPE (maximum […] effect) of the drug.

The test system of test [2] is formalin-induced inflammatory-mediated pain response (hind-paw licking). As to the kind of experiment: Mouse Formalin Assay. As to conditions: i.p.; for acute response, decrease from control: acute phase. The protocol: The mouse formalin test is an acute and chronic model for testing the ability of a test compound for the treatment of pain.
In the Mouse Formalin Test, 0.5% formalin was injected s.c. into the plantar region of the hind-paw of adult male mice to induce an inflammatory-mediated pain response. Pain was expressed as licking of the injected area in a bi-modal manner—acute and chronic phase. The acute phase occurred immediately and lasted approximately 10-15 min post-injection, representing direct stimulation of pain fibers. Licking behavior resumes approximately 10 mins later (˜20 min post injection) and lasted 10-15 min, representing the chronic phase due to centralized sensitization in dorsal horn neurons and hypothesized to be caused by the release of inflammatory mediators such as cytokines.
Activity in the acute phase of the formalin test is an indicator of acute pain believed to correlate with peripheral pain pathways.

Test [3] deals with Taxol induced mechanical allodynia in the rat hind paw. As to the kind of experiment: Taxol-Induced Peripheral Neuropathy (von Frey paw withdrawal threshold). As to conditions: 100 mg/kg, p.o. daily for 12 days with Taxol 2 mg/kg i.p.; day 12; not statistically different from baseline (16.42±2.14 g). From the text: Peripheral neuropatheis are chronic conditions that arise when nerves are damaged by trauma, disease, metabolic insufficiency or by certain drugs and toxins. The sensory disturbances associated with chemotherapeutic agents, such as paclitaxel (Taxol), range from mild tingling to spontaneous burning, typically in the hands and feet. Symptoms become more intense with continued therapy and can lead to weakness, ataxia, numbness and pain. Taxol-induced peripheral neuropathy in rats have therefore been used as a model of peripheral neuropathies in humans.
Male Sprague-Dawley rats (Harlan) were randomly assigned to two treatment groups: vehicle (0.5% hypromellose, p.o.) and Compound #1 (100 mg/kg, p.o). All rats were injected with Taxol (2 mg/kg, i.p.) on days 1, 3, 5 and 7. At the same time, rats received daily oral gavage of vehicle or Compound #1, starting the day of the first Taxol injection and continuing for 12 days.
All animals were acclimated to the allodynia procedure 2-3 days prior to testing allowing the rats to habituate to the testing devices. Rats underwent Von Frey hair testing as a measure of mechanical allodynia at baseline and on days 5 and 12 post-Taxol injection. Tactile sensitivity was measured using calibrated filaments touched to the plantar surfaces of the affected limb. […]

[4] abbreviates: 107 mg/kg, 15 min prior to formalin injection, p<0.01.

SMILES strings stand for the structures.

On to `NS(=O)(=O)NCc1csc2ccccc12` [Compound #1, N-(benzo[b]thien-3-ylmethyl)-sulfamide], for which, in test [1] (240 mg/kg, p.o., at 1 h post-dosing), the “improvement in the allodynic response (% MPE)” value came to 80%. The 50% effective dose (ED50) in test [1] (Rattus norvegicus, po, at 1 h post-dosing, n=5 rats/dose, read-out: acute oral ED50) was 169 mg/kg. For the same molecule, the “time of peak efficacy post-dosing” value in test [1] (p.o., efficacy observed at 30 min, gone by 4 h) is reported as 1 h. Besides, the “acute response, decrease from control” value stood at 32% in test [2] (53 mg/kg, p<0.05) and 52% in test [2] (setting [4]). For the same molecule, the “chronic phase response, decrease from control” value in test [2] (53 mg/kg, p<0.01) was 67%; in test [2] (setting [4]), 88%. The same molecule had a withdrawal force in test [3] of 14.32 ± 5.45 g.
